Measured values as given in patent publication US7763615B2, “Ecteinascidin analogs for use as antitumour agents” (priority 2001, dated 2010).
Like-named read-outs stand apart in the source and are kept apart here.

How the values were obtained:
[1] = tested on: IGROV; experiment: cells; type: cell-based
Summary of the method: (§1)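 Readout: SRB OD490, triplicate wells. Setup: 5×10^3 cells/well, RPMI 1640 + 10% FBS, 37° C, 5% CO2; 18 h pre-attachment; 48 h sample exposure, 10 to 10^−8 μg/ml. Outputs GI, TGI (cytostatic), LC (cytotoxic).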

[2] = tested on: HT29; experiment: cells; type: cell-based; settings: for CC50: read-out: LC50
Summary of the method: as §1

[3] = tested on: PANC-1; experiment: cells; type: cell-based; settings: for CC50: read-out: LC50
Summary of the method: as §1

[4] = tested on: LOVO; experiment: cells; type: cell-based; settings: LOVO; for CC50: read-out: LC50
Summary of the method: as §1

[5] = tested on: SK-BR3; experiment: cells; type: cell-based; settings: for CC50: read-out: LC50
Summary of the method: as §1

[6] = tested on: K562; experiment: cells; type: cell-based; settings: for CC50: read-out: LC50
Summary of the method: as §1

[7] = tested on: IGROV-ET; experiment: cells; type: cell-based; settings: IGROV-ET; for CC50: read-out: LC50
Summary of the method: as §1

[8] = tested on: MEL-28; experiment: cells; type: cell-based; settings: for CC50: read-out: LC50
Summary of the method: as §1

[9] = tested on: A549; experiment: cells; type: cell-based; settings: for GI50: read-out: GI50; for CC50: read-out: LC50
Summary of the method: as §1

[10] = tested on: LNCAP; experiment: cells; type: cell-based; settings: LNCAP; for CC50: read-out: LC50
Summary of the method: as §1

[11] = tested on: DU145; experiment: cells; type: cell-based; settings: for CC50: read-out: LC50
Summary of the method: as §1

[12] = tested on: LOVO-DOX; experiment: cells; type: cell-based; settings: LOVO-DOX; for CC50: read-out: LC50
Summary of the method: as §1

[13] = biological target: T1, CYP2D6 (Homo sapiens, UniProt P10635); settings: 450 min, 10 µM
[14] = tested on: FDC-P1, normal mouse myelogeous stem cells; settings: 24 h
[15] = tested on: SK-OV3; experiment: Inhibition of cells growth by colorimetric assay (SRB), SK-OV3; type: cell-based; settings: for CC50: read-out: LC50
Summary of the method: as §1

[16] = s9, 60 min, 1 μM
Experimental: The metabolic stability was determined used human liver S9 homogenate that including both microsomal and cytosolic enzyme activities. The test compound was diluted in methanol (0.625%) and acetonitrile (0.625%) at the concentration 1 μM and incubated in the human liver pool (protein=1 mg/mL) during 60 min at 37° C. Peak areas corresponding to all analytes (metabolic products) were determined by HPLC-MS/MS. Areas were recorded and ratios of peak areas of analytes to that of internal standard for each analyte were determined. The ratio of precursor compound remaining after 60 minutes and the amount remaining at time zero, expressed as percent, are reported as metabolic stability. Higher values mean higher metabolic stability.

[17] = tested on: L8, normal rat skeletal muscle cells; settings: 24 h
Experimental: (§2) In order to assess the cytotoxicity of the drugs to normal cells, we used 96 well plates plated at a density of 5000 cells per well (except for the FDC-P1 which were plated at 12,000 cells per well) with normal cell lines (ATCC, Table 1) maintained as per the directions of the ATCC: AML-12, normal mouse liver cells; NRK-52E, normal rat kidney cells; L8, normal rat skeletal muscle cells; FDC-P1, normal mouse myelogeous stem cells; and H9c2 (2-1), normal rat cardiac muscle cells. The cells in each plate were permitted to settle overnight before adding the test drug.
(§3) To each well (100 μl medium) 10 μl of drug in media was added at varying concentrations (1×10-10-0.01 mg/ml final concentration) and further incubated overnight at 37° C. with 5% CO2. After 24 h the following assays were performed. All experiments were repeated at least 3 times and were assayed in duplicate.
(§4) MTS assay (CellTiter 96 aqueous) was performed according to the manufacturer's (Promega) directions (for all cell types). Cell viability (mitochondrial activity) is determined via enzymatic conversion of the formazan substrate.

[18] = 60 min
[19] = tested on: H-MEC-1; experiment: Inhibition of cells growth by colorimetric assay (SRB), H-MEC-1; type: cell-based; settings: for CC50: read-out: LC50
Summary of the method: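 Absorbance at 490 nm of sulphorhodamine B bound by TCA-fixed cells gives the growth readout after 48 h continuous exposure to test samples (10 to 10^−8 μg/ml). Cells were seeded at 5×10^3 per well in RPMI 1640/10% FBS and allowed 18 h to attach first.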

[20] = tested on: NRK-52E, normal rat kidney cells; settings: 24 h
Experimental: as §2, §3, §4

[21] = tested on: AML-12, normal mouse liver cells; settings: 24 h
[22] = biological target: CYP3A4 (Homo sapiens, UniProt P08684); settings: 30 min, 10 µM
Experimental: For CYP3A4 inhibition assay, the compound were tested at 10 μM in duplicate with a 0.25% final concentration of both methanol and acetonitrile in presence of the fluorescent substrate BFC (50 μM). The conversion of the BFC (7-benzyloxy-4-trifluoromethylcoumarin) in HFC (7-hydroxy-4-trifluoromethylcoumarin) was determined spectro-fluormetry after incubation with the enzyme during 30 min at 37° C.
For both assays, the fluorescent intensity measured at t=0 is subtracted from that measured after the appropriate incubation time. The ratio of signal-to-noise is calculated by comparing the fluorescence in incubations containing the test compound to the control samples containing the same solvent vehicle. The percent of control activity is calculated and reported as percent inhibition.

[23] = tested on: H9c2 (2-1), normal rat cardiac muscle cells; settings: 24 h
[24] = tested on: (HEPG2); settings: human, 24 h, 30 μM
[25] = biological target: T1, CYP2D6; experiment: in vitro; settings: CYP2D6 (% inhibition)
[26] = H-MEC-1, 48 hours exposure, SRB

Sequence of CYP3A4 (P08684 whole entry): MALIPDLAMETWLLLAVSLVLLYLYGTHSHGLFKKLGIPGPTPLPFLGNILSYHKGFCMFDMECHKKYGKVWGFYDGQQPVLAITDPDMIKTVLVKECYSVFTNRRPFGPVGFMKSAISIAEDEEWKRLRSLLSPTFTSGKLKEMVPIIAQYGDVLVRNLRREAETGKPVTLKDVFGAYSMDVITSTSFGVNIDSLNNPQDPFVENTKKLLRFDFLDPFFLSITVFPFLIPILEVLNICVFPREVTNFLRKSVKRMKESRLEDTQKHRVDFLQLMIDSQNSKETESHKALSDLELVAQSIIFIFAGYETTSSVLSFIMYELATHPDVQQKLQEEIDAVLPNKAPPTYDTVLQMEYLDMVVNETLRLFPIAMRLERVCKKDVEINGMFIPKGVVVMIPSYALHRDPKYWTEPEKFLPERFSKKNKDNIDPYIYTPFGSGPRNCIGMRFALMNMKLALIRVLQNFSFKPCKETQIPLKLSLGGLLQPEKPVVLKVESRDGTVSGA
T1 sequence (P10635 whole entry): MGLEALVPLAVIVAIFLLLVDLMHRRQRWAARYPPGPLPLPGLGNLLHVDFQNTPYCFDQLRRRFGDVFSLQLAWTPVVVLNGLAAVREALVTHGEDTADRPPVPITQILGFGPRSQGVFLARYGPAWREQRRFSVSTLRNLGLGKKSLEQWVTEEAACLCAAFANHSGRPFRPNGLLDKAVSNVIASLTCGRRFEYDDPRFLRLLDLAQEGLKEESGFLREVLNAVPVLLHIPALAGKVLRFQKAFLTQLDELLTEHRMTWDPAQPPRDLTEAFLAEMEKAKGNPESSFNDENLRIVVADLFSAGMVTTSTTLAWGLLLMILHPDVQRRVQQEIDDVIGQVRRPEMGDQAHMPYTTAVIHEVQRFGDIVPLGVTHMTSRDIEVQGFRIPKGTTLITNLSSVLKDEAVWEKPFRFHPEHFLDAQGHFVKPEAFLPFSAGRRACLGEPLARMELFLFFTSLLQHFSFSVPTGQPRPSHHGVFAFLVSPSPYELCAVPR

COc1c(C)cc2c(c1O)[C@@H]1C3[C@@H]4SC[C@]5(NC(C)Cc6c5[nH]c5ccc(F)cc65)C(=O)COC[C@@H](c5c6c(c(C)c(OC(C)=O)c54)OCO6)N3[C@@H](O)[C@H](C2)N1C (stereo partly shown) [Compound 42]
GI50 ([1]; 48 hours exposure, SRB): 2.44 nM | TGI ([1]; 48 hours exposure, SRB): 5.12E−09 Molar | CC50 ([1]; read-out: LC50, 48 hours exposure, SRB): 10.7 nM | GI50 ([2]; HT29, 48 hours exposure, SRB): 34.1 nM | TGI ([2]; HT29, 48 hours exposure, SRB): 1.42E−07 Molar | CC50 ([2]; HT29, 48 hours exposure, SRB): 12700 nM | GI50 ([3]; PANC-1, 48 hours exposure, SRB): 16.9 nM | TGI ([3]; PANC-1, 48 hours exposure, SRB): 8.25E−08 Molar | CC50 ([3]; PANC-1, 48 hours exposure, SRB): 12700 nM | GI50 ([4]; 48 hours exposure, SRB): 13.5 nM | TGI ([4]; 48 hours exposure, SRB): 4.37E−08 Molar | CC50 ([4]; 48 hours exposure, SRB): 127 nM | GI50 ([5]; SK-BR3, 48 hours exposure, SRB): 6.63 nM | TGI ([5]; SK-BR3, 48 hours exposure, SRB): 2.44E−08 Molar | CC50 ([5]; SK-BR3, 48 hours exposure, SRB): 87.3 nM | GI50 ([6]; K562, 48 hours exposure, SRB): 4.77 nM | TGI ([6]; K562, 48 hours exposure, SRB): 9.15E−09 Molar | CC50 ([6]; K562, 48 hours exposure, SRB): 2810 nM | GI50 ([7]; 48 hours exposure, SRB): 43.2 nM | TGI ([7]; 48 hours exposure, SRB): 9.42E−08 Molar | CC50 ([7]; 48 hours exposure, SRB): 12700 nM | GI50 ([8]; MEL-28, 48 hours exposure, SRB): 0.404 nM | TGI ([8]; MEL-28, 48 hours exposure, SRB): 9.77E−10 Molar | CC50 ([8]; MEL-28, 48 hours exposure, SRB): 6.19 nM | TGI ([9]; A549, 48 hours exposure, SRB): 4.09E−08 Molar | GI50 ([9]; A549, 48 hours exposure, SRB): 22 nM | CC50 ([9]; A549, 48 hours exposure, SRB): 75.9 nM | GI50 ([10]; 48 hours exposure, SRB): 3.74 nM | TGI ([10]; 48 hours exposure, SRB): 6.61E−09 Molar | CC50 ([10]; 48 hours exposure, SRB): 11.7 nM | GI50 ([11]; DU145, 48 hours exposure, SRB): 3.51 nM | TGI ([11]; DU145, 48 hours exposure, SRB): 7.97E−09 Molar | CC50 ([11]; DU145, 48 hours exposure, SRB): 12.7 nM | GI50 ([12]; 48 hours exposure, SRB): 45.9 nM | TGI ([12]; 48 hours exposure, SRB): 2.05E−07 Molar | CC50 ([12]; 48 hours exposure, SRB): 12700 nM | CYP2D6 (% inhibition) [13]: 19 % inhibition | Myelo [14]: 6.41E−08 | GI50 ([15]; SK-OV3, 48 hours exposure, SRB): 7.37 nM | TGI ([15]; SK-OV3, 48 hours exposure, SRB): 7.92E−07 Molar | CC50 ([15]; SK-OV3, 48 hours exposure, SRB): 12700 nM | Human Liver S9 Metabolic Stability (% remaining) [16]: 5 % remaining | Skeletal [17]: 3.37E−08 | log D n-Octanol-Dulbecco's PBS pH 7.4 [18]: >4.8 | GI50 [19, 26]: 40.4 nM | TGI [19, 26]: 2.47E−07 Molar | CC50 [19, 26]: 12700 nM | Kidney [20]: 1.12E−09 | Liver [21]: 1.86E−07 | CYP3A4 (% inhibition) [22]: 78 % inhibition | Heart [23]: 1.42E−07 | Solubility Dulbecco's PBS pH 7.4: 10.37 μM | Cell Viability (% inhibition) [24]: 67 % inhibition

COc1c(C)cc2c(c1O)[C@@H]1C3[C@@H]4SC[C@]5(NC(C)Cc6c5[nH]c5ccccc65)C(=O)COC[C@@H](c5c6c(c(C)c(OC(C)=O)c54)OCO6)N3[C@@H](O)[C@H](C2)N1C (stereo partly shown) [Compound 44]
GI50 [1]: 4.29 nM | TGI [1]: 1.22E−08 | CC50 ([1]; read-out: LC50): 93 nM | GI50 ([2]; HT29): 59.8 nM | TGI ([2]; HT29): 4.59E−07 | CC50 ([2]; HT29): ≥ 13000 nM | GI50 ([3]; PANC-1): 56.7 nM | TGI ([3]; PANC-1): 1.55E−07 | CC50 ([3]; PANC-1): ≥ 13000 nM | GI50 [4]: 27.1 nM | TGI [4]: 5.10E−08 | CC50 [4]: 96.1 nM | GI50 ([5]; SK-BR3): 12.7 nM | TGI ([5]; SK-BR3): 4.27E−08 | CC50 ([5]; SK-BR3): 177 nM | GI50 ([6]; K562): 3.94 nM | TGI ([6]; K562): 9.38E−09 | CC50 ([6]; K562): 107 nM | GI50 [7]: 28.5 nM | TGI [7]: 7.06E−08 | CC50 [7]: 130 nM | GI50 ([8]; MEL-28): 2.63 nM | TGI ([8]; MEL-28): 5.22E−09 | CC50 ([8]; MEL-28): 10.3 nM | TGI ([9]; A549): 4.76E−08 | GI50 ([9]; A549): 27.4 nM | CC50 ([9]; A549): 82.3 nM | GI50 [10]: 4.3 nM | TGI [10]: 8.84E−09 | CC50 [10]: 31.1 nM | GI50 ([11]; DU145): 6.54 nM | TGI ([11]; DU145): 1.18E−08 | CC50 ([11]; DU145): ≥ 13000 nM | GI50 [12]: 91 nM | TGI [12]: 8.53E−07 | CC50 [12]: ≥ 13000 nM | Myelo [14]: 1.21E−07 | GI50 ([15]; SK-OV3): 37.5 nM | TGI ([15]; SK-OV3): 1.31E−07 | CC50 ([15]; SK-OV3): ≥ 13000 nM | Human Liver S9 Metabolic Stability (% remaining) [16]: 4 % remaining | Skeletal [17]: 4.02E−08 | inhibition at 450 min, 10 µM [25]: 16% | log D n-Octanol-Dulbecco's PBS pH 7.4 [18]: >4.9 | GI50 ([19]; H-MEC-1): 75.3 nM | TGI ([19]; H-MEC-1): 1.31E−06 | CC50 ([19]; H-MEC-1): ≥ 13000 nM | Kidney [20]: 4.15E−07 | Liver [21]: 4.33E−07 | CYP3A4 (% inhibition) [22]: 72 % inhibition | Heart [23]: 5.20E−06 | Solubility Dulbecco's PBS pH 7.4: 20.69 μM | Cell Viability (% inhibition) [24]: 73 % inhibition
